Legend:
[1] = test system: resistant Plasmopara viticola strains; experiment: Activity against resistant Plasmopara viticola strains on grapevine plants (Riesling); assay type: in vivo; conditions: for diseased leaf area: resistant fungi, grapevine (Riesling), final evaluation on day 6; for assessment in words of the treatment of resistant fungal strains: preventative treatment
Method: (§1) Study on the activity of the four carboxamide fungicides against sensitive and resistant Plasmopara viticola strains.
(§2) Four-week old grapevine plants (Riesling) with 6-8 leaves are treated with 50 ml of a solution which contains the harmful fungi (200 000 spores of the fungus Plasmopara viticola per milliliter). Tests are carried out both with sensitive and with resistant strains.
(§3) The fungicidal active substances described in Example 1 are applied both one day before the treatment with the harmful fungi (preventative treatment) and in each case one day after the treatment with the harmful fungi (curative treatment). After the treatment with the harmful fungi, the plants are left to stand overnight at 95% atmospheric humidity and a temperature of 18° C. This is followed by a 6-day observation phase and a final evaluation on day 6, the test plants being exposed to daylight for 12 hours and left to stand in the dark for 12 hours.
(§4) To promote spore development, the undersides of the grapevine leaves are sprayed with water 24 hours before carrying out the final evaluation and left to stand.
(§5) The experiments are evaluated by determining the percentage of diseased leaf area of each plant. A high percentage means a high disease level caused by the harmful fungus, while a low percentage means a low disease level caused by the harmful fungus.

[2] = test system: sensitive Plasmopara viticola strains; experiment: Activity against sensitive Plasmopara viticola strains on grapevine plants (Riesling); assay type: in vivo; conditions: final evaluation on day 6
Method: as §1, §2, §3, §4, §5

[3] = curative treatment (one day after treatment with the harmful fungi)
[4] = preventative treatment (one day before treatment with the harmful fungi)

SMILES | diseased leaf area [1, 3] [%] | diseased leaf area [1, 4] [%] | assessment in words of the treatment of resistant fungal strains [1] | diseased leaf area [2, 3] [%] | diseased leaf area [2, 4] [%]
C#CCOc1ccc(CCNC(=O)C(OCC#C)c2ccc(Cl)cc2)cc1OC (racemic) [stock solution B, (RS)-2-(4-chlorophenyl)-N-[3-methoxy-4-(prop-2-ynyloxy)phenethyl]-2-(prop-2-ynyloxy)acetamide] | 65 | 8 | effective | 0 | 0
COc1ccc(C(=CC(=O)N2CCOCC2)c2ccc(Cl)cc2)cc1OC [stock solution A, (E,Z)-4-[3-(4-chlorophenyl)-3-(3,4-dimethoxyphenyl)acryloyl]morpholine] | 70 | 0.5 | effective | 0 | 0
Cc1ccc(C(C)NC(=O)[C@@H](NC(=O)OC(C)C)C(C)C)cc1 (stereo partly drawn) [stock solution C, isopropyl 2-methyl-1-[(1-p-tolylethyl)carbamoyl]-(S)-propylcarbamate] | 75 | 70 | no satisfactory results | 0 | 0
CC(C)OC(=O)N[C@H](C(=O)N[C@H](C)c1nc2ccc(F)cc2s1)C(C)C [stock solution D, isopropyl[(S)-1-{[(R)-1-(6-fluoro-1,3-benzothiazol-2-yl)ethyl]carbamoyl}-2-methylpropyl]carbamate] | 70 | 55 | no satisfactory results | 0 | 0

— patent publication US20100210652A1, “Method For Controlling Fungal Pests” (priority 2006, published 2010)
